How the values were obtained:
EKVX = assay: NCI one-dose SRB growth inhibition; format: cell-based; settings: Homo sapiens, Non-Small Cell Lung Cancer, 48 h, read-out: GI% EKVX
Experimental: (§1) The antitumor assay was performed according to the protocol of the Drug Evaluation Branch, NCI, Bethesda[24–26]. A 48 h drug exposure protocol was adopted, and sulforhodamine B (SRB) assay[27] was utilized to assess the cell growth and viability, as reported earlier[17]^,[28].
(§2) The structures of all the newly synthesized pyridines 5a–l were submitted to the National Cancer Institute (NCI) Developmental Therapeutic Program (www.dtp.nci.nih.gov). […] Nine different types of cancer were tested in this assay: colon, ovarian, prostate, leukemia, melanoma, CNS, renal, breast and lung cancers. A 48 h drug exposure protocol was adopted, and sulforhodamine B (SRB) assay[27] was utilized to assess the cell growth and viability.

SK-MEL-5 = assay: NCI one-dose SRB growth inhibition; format: cell-based; settings: Homo sapiens, Melanoma, 48 h, read-out: GI% SK-MEL-5
Experimental: as §1, §2

MDA-MB-231 = assay: NCI one-dose SRB growth inhibition; format: cell-based; settings: Homo sapiens, Breast Cancer, 48 h, read-out: GI% MDA-MB-231
Experimental: as §1, §2

UACC-62 = assay: NCI one-dose SRB growth inhibition; format: cell-based; settings: Homo sapiens, UACC-62, 48 h, Melanoma, read-out: GI% UACC-62
Experimental: as §1, §2

SR = assay: NCI one-dose SRB growth inhibition; format: cell-based; settings: Homo sapiens, 48 h, Leukemia, read-out: GI% SR
Experimental: as §1, §2

HCT-15 = assay: NCI one-dose SRB growth inhibition; format: cell-based; settings: Homo sapiens, HCT-15, 48 h, Colon Cancer, read-out: GI% HCT-15
Experimental: as §1, §2

HCC-2998 = assay: NCI one-dose SRB growth inhibition; format: cell-based; settings: Homo sapiens, Colon Cancer, 48 h, read-out: GI% HCC-2998
Experimental: as §1, §2

SNB-75 = assay: NCI one-dose SRB growth inhibition; format: cell-based; settings: Homo sapiens, CNS Cancer, 48 h, read-out: GI% SNB-75
Experimental: as §1, §2

SN12C = assay: NCI one-dose SRB growth inhibition; format: cell-based; settings: Homo sapiens, Renal Cancer, 48 h, read-out: GI% SN12C
Experimental: as §1, §2

NCI-H522 = assay: NCI one-dose SRB growth inhibition; format: cell-based; settings: Homo sapiens, NCI-H522, 48 h, Non-Small Cell Lung Cancer, read-out: GI% NCI-H522
Experimental: as §1, §2

A498 = assay: NCI one-dose SRB growth inhibition; format: cell-based; settings: Homo sapiens, Renal Cancer, 48 h, read-out: GI% A498
Experimental: as §1, §2

LOX IMVI = assay: NCI one-dose SRB growth inhibition; format: cell-based; settings: Homo sapiens, Melanoma, 48 h, read-out: GI% LOX IMVI
Experimental: as §1, §2

SF-539 = assay: NCI one-dose SRB growth inhibition; format: cell-based; settings: Homo sapiens, CNS Cancer, 48 h, read-out: GI% SF-539
Experimental: as §1, §2

NCI-H23 = assay: NCI one-dose SRB growth inhibition; format: cell-based; settings: Homo sapiens, Non-Small Cell Lung Cancer, 48 h, read-out: GI% NCI-H23
Experimental: as §1, §2

U251 = assay: NCI one-dose SRB growth inhibition; format: cell-based; settings: Homo sapiens, U-251, CNS Cancer, 48 h, read-out: GI% U251
Experimental: as §1, §2

NCI-H226 = assay: NCI one-dose SRB growth inhibition; format: cell-based; settings: Homo sapiens, Non-Small Cell Lung Cancer, 48 h, read-out: GI% NCI-H226
Experimental: as §1, §2

OVCAR-8 = assay: NCI one-dose SRB growth inhibition; format: cell-based; settings: Homo sapiens, Ovarian Cancer, 48 h, read-out: GI% OVCAR-8
Experimental: as §1, §2

HCT-116 = assay: NCI one-dose SRB growth inhibition; format: cell-based; settings: Homo sapiens, HCT-116, 48 h, Colon Cancer, read-out: GI% HCT-116
Experimental: as §1, §2

HT29 = assay: NCI one-dose SRB growth inhibition; format: cell-based; settings: Homo sapiens, HT-29, 48 h, Colon Cancer, read-out: GI% HT29
Experimental: as §1, §2

NCI/ADR-RES = assay: NCI one-dose SRB growth inhibition; format: cell-based; settings: Homo sapiens, Ovarian Cancer, 48 h, read-out: GI% NCI/ADR-RES
Experimental: as §1, §2

A549/ATCC = assay: NCI one-dose SRB growth inhibition; format: cell-based; settings: Homo sapiens, A549, 48 h, Non-Small Cell Lung Cancer, read-out: GI% A549/ATCC
Experimental: as §1, §2

BT-549 = assay: NCI one-dose SRB growth inhibition; format: cell-based; settings: Homo sapiens, Breast Cancer, 48 h, read-out: GI% BT-549
Experimental: as §1, §2

HCT-116 cell line = assay: MTT anti-proliferative assay; format: cell-based; settings: Homo sapiens, 48 h of incubation, mean ± SD of three experiments
Experimental: (§3) A549 (non-small cell lung cancer cell line) and HCT-116 (human colon cancer cell line), were obtained from American Type Culture Collection (Manassas, VA, USA). The cells were maintained in Dulbecco’s Modified Eagle’s Medium (DMEM) (Sigma-Aldrich, St. Louis, MO), and supplemented with 10% heat-inactivated FBS (Hyclone), 10 μg/mL of insulin (Manufacturer, Sigma, St. Louis, MO, USA), and 1% penicillin-streptomycin. MTT assay[29] was adopted to assess the in vitro antitumor activity of the newly synthesized pyridines 5a–l according to the reported procedures, using Doxorubicin as a standard treatment. Experimental conditions were tested using three replicates (three wells of the 96-well plate per experimental condition) and all experiments were carried out in triplicates. IC50 values were calculated by the use of the equation for Boltzman sigmoidal concentration–response curve using the nonlinear regression fitting models by Graph Pad, Prism version 5 (GraphPad Software Inc., La Jolla, CA).
(§4) All newly synthesized pyridines 5a–l were examined for their anti-proliferative activity towards two cancer cell lines: non-small cell lung cancer A549 cell line and colon cancer HCT-116 cell line. The MTT colorimetric assay was adopted to assess the anti-proliferative activity as described by Mosmann[29]. Doxorubicin was used as a control in this assay.

A549 cell line = assay: MTT anti-proliferative assay; format: cell-based; settings: Homo sapiens, 48 h of incubation, mean ± SD of three experiments
Experimental: as §3, §4

WI-38 cell line = assay: MTT cytotoxicity towards non-tumorigenic cells; format: cell-based, human; settings: for IC50: WI-38, MTT, non-tumorigenic human lung fibroblast, mean ± SD of three experiments; for S. I. WI-38/A549: selectivity index, IC50 WI-38 / IC50 A549
Experimental: The cytotoxic activity of all synthesized pyridines 5a–l were assessed against non-tumorigenic human lung fibroblast WI-38 cell line to investigate their safety, using the MTT colorimetric assay.

[1] = system: 60 cancer cell lines (NCI, USA); assay: NCI one-dose SRB assay, whole panel; format: cell-based, human; settings: 10 μM; for Sensitive cell lines no.: cell lines with GI% higher than 10%
Experimental: as §1, §2

| SMILES | inhibition at 10 µM (EKVX) | inhibition at 10 µM (SK-MEL-5) | inhibition at 10 µM (MDA-MB-231) | inhibition at 10 µM (UACC-62) | inhibition at 10 µM (SR) | inhibition at 10 µM (HCT-15) | inhibition at 10 µM (HCC-2998) | inhibition at 10 µM (SNB-75) | inhibition at 10 µM (SN12C) | inhibition at 10 µM (NCI-H522) | inhibition at 10 µM (A498) | inhibition at 10 µM (LOX IMVI) | inhibition at 10 µM (SF-539) | inhibition at 10 µM (NCI-H23) | inhibition at 10 µM (U251) | inhibition at 10 µM (NCI-H226) | inhibition at 10 µM (OVCAR-8) | inhibition at 10 µM (HCT-116) | inhibition at 10 µM (HT29) | inhibition at 10 µM (NCI/ADR-RES) | also measured |
| --- | --- | --- | --- | --- | --- | --- | --- | --- | --- | --- | --- | --- | --- | --- | --- | --- | --- | --- | --- | --- | --- |
| Cc1nc(-c2ccc(F)cc2)ccc1NC(=O)Nc1cccc(C(F)(F)F)c1 [Compound 5a, 1-(6-(4-Fluorophenyl)-2-methylpyridin-3-yl)-3-(3-(trifluoromethyl)phenyl)urea] | 17% | 32% | 28% | > 40% | > 40% | > 40% | < 10% | < 10% | 26% | > 40% | < 10% | 37% | < 10% | 24% | 31% | 18% | 29% | > 40% | > 40% | 20% | inhibition at 10 µM (A549/ATCC): > 40%; inhibition at 10 µM (BT-549): < 10%; IC50 (HCT-116 cell line): 5.49 ± 0.3 µM; IC50 (A549 cell line): 6.83 ± 0.42 µM; IC50 (WI-38 cell line): 93.5 ± 5.28 µM; S. I. WI-38/A549 (WI-38 cell line): 13.7; Sensitive cell lines no. [1]: 42; mean % GI ([1]; mean over NCI panel): 22% |
| CCOC(=O)c1ccc(NC(=O)Nc2ccc(-c3cccs3)nc2C)cc1 [Compound 5j, Ethyl 4-(3-(2-methyl-6-(thiophen-2-yl)pyridin-3-yl)ureido)benzoate] | < 10% | 22% | < 10% | < 10% | 44% | 30% | < 10% | < 10% | < 10% | 52% | < 10% | 10% | < 10% | < 10% | 21% | < 10% | < 10% | 27% | 19% | < 10% | inhibition at 10 µM (A549/ATCC): 35%; inhibition at 10 µM (BT-549): 15%; IC50 (HCT-116 cell line): 9.38 ± 0.67 µM; IC50 (A549 cell line): 8.04 ± 0.59 µM; IC50 (WI-38 cell line): 107 ± 7.02 µM; S. I. WI-38/A549 (WI-38 cell line): 13.3; Sensitive cell lines no. [1]: 24 |
| COc1ccc(NC(=O)Nc2ccc(-c3ccc(Cl)cc3)nc2C)cc1 [Compound 5f, 1-(6-(4-Chlorophenyl)-2-methylpyridin-3-yl)-3-(4-methoxyphenyl) urea] | < 10% | 38% | < 10% | 27% | 28% | < 10% | < 10% | < 10% | < 10% | 40% | < 10% | 21% | < 10% | < 10% | < 10% | 19% | < 10% | 21% | 23% | < 10% | inhibition at 10 µM (A549/ATCC): 25%; inhibition at 10 µM (BT-549): < 10%; IC50 (HCT-116 cell line): 12.6 ± 1.08 µM; IC50 (A549 cell line): 7.9 ± 0.54 µM; IC50 (WI-38 cell line): 116 ± 9.61 µM; S. I. WI-38/A549 (WI-38 cell line): 14.7; Sensitive cell lines no. [1]: 19 |
| Cc1nc(-c2ccc(F)cc2)ccc1NC(=O)Nc1ccc2c(c1)OCO2 [Compound 5d, 1-(Benzo[d][1, 3]dioxol-5-yl)-3-(6-(4-fluorophenyl)-2-methylpyridin-3-yl)urea] | < 10% | 19% | < 10% | 20% | 11% | < 10% | < 10% | < 10% | < 10% | 45% | < 10% | 34% | < 10% | < 10% | < 10% | < 10% | < 10% | 17% | 14% | < 10% | inhibition at 10 µM (A549/ATCC): 13%; inhibition at 10 µM (BT-549): < 10%; IC50 (HCT-116 cell line): 10.4 ± 0.84 µM; IC50 (A549 cell line): 12.5 ± 0.85 µM; IC50 (WI-38 cell line): 107 ± 7.03 µM; S. I. WI-38/A549 (WI-38 cell line): 8.6; Sensitive cell lines no. [1]: 12 |

From paper PMC6366416, “Synthesis and in vitro anticancer activity of certain novel 1-(2-methyl-6-arylpyridin-3-yl)-3-phenylureas as apoptosis-inducing agents” (Journal of Enzyme Inhibition and Medicinal Chemistry, 2019)
